Test results from the supplement of paper PMC11281043.

Assays:
Settings in all cases: exposure: 6-8 hpf to 5 dpf, scored at 6 dpf
[1] = test system: Danio rerio embryo/larva; test: max % larvae with tail defects across tested concentrations; higher = more toxic; extreme values may be limits of the assay
[2] = test system: Danio rerio embryo/larva; test: max % larvae with uninflated swim bladder across tested concentrations; higher = more toxic; extreme values may be limits of the assay
[3] = test system: Danio rerio embryo/larva; test: max % larvae with abnormal position across tested concentrations; higher = more toxic; extreme values may be limits of the assay
[4] = test system: Danio rerio embryo/larva; test: max % larvae generally abnormal across tested concentrations; higher = more toxic; extreme values may be limits of the assay
[5] = test system: Danio rerio embryo/larva; test: max % larvae with edema across tested concentrations; higher = more toxic; extreme values may be limits of the assay
[6] = test system: Danio rerio embryo/larva; test: max % larvae with spinal defects across tested concentrations; higher = more toxic; extreme values may be limits of the assay
[7] = test system: Danio rerio embryo/larva; test: max % larvae with pigmentation defects across tested concentrations; higher = more toxic
[8] = test system: Danio rerio embryo/larva; test: max % larvae with blood pooling across tested concentrations; higher = more toxic; extreme values may be limits of the assay
[9] = test system: Danio rerio embryo/larva; test: max % larvae with craniofacial defects across tested concentrations; higher = more toxic; extreme values may be limits of the assay
[10] = test system: Danio rerio embryo/larva; test: max % larvae unhatched across tested concentrations; max tested concentration (log10 uM): 2; higher = more toxic
[11] = test system: Danio rerio embryo/larva; test: max % larvae with any abnormality across tested concentrations; max tested concentration (log10 uM): 2; higher = more toxic; extreme values may be limits of the assay

SMILES	max % larvae [1]	max % larvae [2]	max % larvae [3]	max % larvae generally abnormal across tested concentrations [4]	max % larvae [5]	max % larvae [6]	max % larvae [7]	max % larvae [8]	max % larvae [9]	max % larvae unhatched across tested concentrations [10]	max % larvae [11]
C[N+](C)(C)CCCNS(=O)(=O)C(F)(F)C(F)(F)C(F)(F)C(F)(F)C(F)(F)C(F)(F)C(F)(F)C(F)(F)F (max tested concentration (log10 uM): 1.47712)	0%	25%	12.5%	50%	50%	0%	0%	0%	50%	–	–
O=C(CC(=O)C(F)(F)F)C(F)(F)F [1,1,1,5,5,5-Hexafluoro-2,4-pentanedione] (max tested concentration (log10 uM): 2)	0%	0%	0%	0%	0%	0%	0%	0%	0%	–	–
FC(F)(Br)C(F)(F)C(F)(F)C(F)(F)C(F)(F)C(F)(F)Br [1,6-Dibromododecafluorohexane] (max tested concentration (log10 uM): 2)	0%	0%	0%	4.17%	4.17%	0%	0%	0%	0%	–	–
CCCCCCCCC(F)(F)C(F)(F)C(F)(F)C(F)(F)C(F)(F)C(F)(F)F [1-(Perfluorohexyl)octane] (max tested concentration (log10 uM): 1.60206)	0%	0%	0%	0%	0%	0%	0%	0%	0%	–	–
FC(F)(F)C(F)(F)C(F)(F)C(F)(F)C(F)(F)C(F)(F)C(F)(F)CCI [1-Iodo-1H,1H,2H,2H-perfluorononane] (max tested concentration (log10 uM): 1.60206)	0%	0%	0%	0%	0%	0%	0%	0%	0%	–	–
FC(F)(F)C(F)(F)C(F)(F)C(F)(F)C(F)(F)C(F)(F)C(F)(F)I [1-Iodopentadecafluoroheptane] (max tested concentration (log10 uM): 2)	0%	80%	10.4%	–	30%	8.33%	0%	16.7%	10%	–	–
FC(F)(F)C(F)(F)C(F)(F)C(F)(F)CCI [1H,1H,2H,2H-Perfluorohexyl iodide] (max tested concentration (log10 uM): 2)	0%	0%	0%	8.33%	8.33%	0%	0%	0%	0%	–	–
Cc1ccc(S(=O)(=O)OCC(F)(F)C(F)(F)C(F)(F)C(F)(F)C(F)(F)C(F)F)cc1 [1H,1H,7H-Perfluoroheptyl 4-methylbenzenesulfonate] (max tested concentration (log10 uM): 2)	0%	75%	4.17%	–	16.7%	4.17%	0%	0%	16.7%	–	–
C=CC(=O)OCC(F)(F)C(F)(F)C(F)(F)C(F)(F)C(F)(F)C(F)(F)C(F)(F)C(F)F [1H,1H,9H-Perfluorononyl acrylate]	–	–	–	–	–	–	–	–	–	0%	16.7%
OCC(F)(F)OC(F)(F)C(F)(F)OC(F)(F)C(F)(F)OC(F)(F)CO [1H,1H,11H,11H-Perfluorotetraethylene glycol]	–	–	–	–	–	–	–	–	–	0%	100%
FC(F)(F)C(F)(F)C(F)(F)CC1CO1 (centres undefined) [1H,1H-Heptafluorobutyl epoxide] (max tested concentration (log10 uM): 2)	9.09%	9.09%	0%	–	9.09%	0%	0%	9.09%	9.09%	–	–
O=S(=O)(OCC(F)(F)F)C(F)(F)C(F)(F)C(F)(F)C(F)(F)F [2,2,2-Trifluoroethyl perfluorobutanesulfonate] (max tested concentration (log10 uM): 2)	4.55%	90.9%	11.4%	–	54.5%	0%	0%	31.8%	9.09%	–	–
O=P(O)(O)CCC(F)(F)C(F)(F)C(F)(F)C(F)(F)C(F)(F)C(F)(F)F [2-(Perfluorohexyl)ethylphosphonic acid] (max tested concentration (log10 uM): 2)	0%	40%	10%	–	60%	0%	0%	0%	20%	–	–
O=C(O)C=C(C(F)(F)F)C(F)(F)F [3,3-Bis(trifluoromethyl)-2-propenoic acid] (max tested concentration (log10 uM): 2)	0%	0%	0%	–	2.08%	0%	0%	0%	0%	–	–
O=C(O)CCC(F)(F)C(F)(F)C(F)(F)F [3:3 Fluorotelomer carboxylic acid] (max tested concentration (log10 uM): 2)	2.5%	20%	7.5%	–	17.5%	0%	0%	10%	10%	–	–
OCCCCC(F)(F)C(F)(F)C(F)(F)C(F)(F)F [4:4 Fluorotelomer alcohol] (max tested concentration (log10 uM): 2)	15.6%	93.8%	18.8%	–	93.8%	0%	0%	0%	81.2%	–	–
OCC(F)(F)C(F)(F)C(F)(F)C(F)(F)C(F)(F)C(F)(F)F [6:1 Fluorotelomer alcohol] (max tested concentration (log10 uM): 2)	12.5%	25%	4.17%	–	25%	12.5%	0%	16.7%	25%	–	–

SMILES	max % larvae [1]	max % larvae [2]	max % larvae [3]	max % larvae generally abnormal across tested concentrations [4]	max % larvae [5]	max % larvae [6]	max % larvae [7]	max % larvae [8]	max % larvae [9]	max % larvae unhatched across tested concentrations [10]	max % larvae [11]
O=S(=O)(O)CCC(F)(F)C(F)(F)C(F)(F)C(F)(F)C(F)(F)C(F)(F)F [6:2 Fluorotelomer sulfonic acid] (max tested concentration (log10 uM): 2)	0%	0%	4.17%	–	4.17%	0%	0%	0%	0%	–	–
FC(F)C(F)(F)COCC1CO1 (centres undefined) [((2,2,3,3-Tetrafluoropropoxy)methyl)oxirane] (max tested concentration (log10 uM): 2)	0%	91.7%	8.33%	–	31.2%	0%	0%	0%	16.7%	–	–
C=C(C)C(=O)OCC(F)(F)C(F)(F)C(F)(F)F [(Perfluoropropyl)methyl methacrylate] (max tested concentration (log10 uM): 2)	4.17%	8.33%	4.17%	–	8.33%	0%	4.17%	0%	8.33%	–	–
O=C(O)C(F)(F)C(F)(F)C(F)(F)C(F)(F)C(F)(F)C(F)(F)C(F)(F)F [Ammonium perfluorooctanoate]	–	–	–	–	–	–	–	–	–	0%	16.7%
O=C(O)C(F)(F)C(F)(F)C(F)(F)C(F)(F)C(F)(F)C(F)(F)C(F)(F)F [Ammonium perfluorooctanoate] (max tested concentration (log10 uM): 2)	0%	9.09%	0%	–	0%	0%	0%	0%	0%	–	–
FC(F)(F)C(F)(F)CNCC(F)(F)C(F)(F)F [Bis(1H,1H-perfluoropropyl)amine] (max tested concentration (log10 uM): 2)	0%	16.7%	0%	–	–	0%	0%	0%	0%	–	–
NC(=O)C(F)(F)C(F)(F)C(F)(F)F [Heptafluorobutyramide] (max tested concentration (log10 uM): 2)	0%	10%	0%	–	8.33%	0%	0%	0%	0%	–	–
O=S(=O)(Cl)C(F)(F)C(F)(F)C(F)(F)C(F)(F)C(F)(F)C(F)(F)C(F)(F)C(F)(F)F [Perfluoro-1-octanesulfonyl chloride] (max tested concentration (log10 uM): 2)	100%	100%	25%	–	100%	25%	0%	0%	100%	–	–
O=C(O)C(F)(F)C(F)(F)OC(F)(F)F [Perfluoro-3-methoxypropanoic acid] (max tested concentration (log10 uM): 2)	0%	0%	0%	–	8.33%	0%	0%	16.7%	0%	–	–
O=C(O)C(F)(F)C(F)(F)C(=O)O [Perfluorobutanedioic acid] (max tested concentration (log10 uM): 2)	0%	0%	4.17%	–	8.33%	0%	0%	8.33%	0%	–	–
O=S(=O)(O)C(F)(F)C(F)(F)C(F)(F)C(F)(F)C(F)(F)C(F)(F)C(F)(F)F [Perfluoroheptanesulfonic acid] (max tested concentration (log10 uM): 1.90309)	37.5%	100%	50%	–	91.7%	8.33%	16.7%	50%	100%	–	–
O=C(O)C(F)(F)C(F)(F)C(F)(F)C(F)(F)C(F)(F)C(F)(F)F [Perfluoroheptanoic acid]	–	–	–	–	–	–	–	–	–	0%	16.7%
O=S(=O)(O)C(F)(F)C(F)(F)C(F)(F)C(F)(F)C(F)(F)C(F)(F)F [Perfluorohexanesulfonic acid] (max tested concentration (log10 uM): 2)	0%	100%	31.2%	–	31.2%	3.12%	0%	25%	50%	–	–
O=C(O)C(F)(F)C(F)(F)C(F)(F)C(F)(F)C(F)(F)C(F)(F)C(F)(F)F [Perfluorooctanoic acid]	–	–	–	–	–	–	–	–	–	0%	16.7%
O=S(=O)(O)C(F)(F)C(F)(F)C(F)(F)C(F)(F)C(F)(F)C(F)(F)C(F)(F)C(F)(F)F [Potassium perfluorooctanesulfonate] (max tested concentration (log10 uM): 2)	100%	100%	50%	–	100%	50%	0%	33.3%	100%	–	–
O=C(O)C(F)(F)C(F)(F)C(F)(F)C(F)(F)C(F)(F)C(F)(F)C(F)(F)F [Potassium perfluorooctanoate] (max tested concentration (log10 uM): 2)	2.27%	9.09%	2.27%	–	9.09%	0%	0%	9.09%	9.09%	–	–
